In patent publication US6649656B1, “Anthranilic acid derivatives” (Teijin Limited, priority 1998, dated 2003):
Where two headings read alike, the source gives them in different places.

How the values were obtained:
Assay type in all cases: cell-based
L929 cells = test: Measurement of cytotoxicity using mouse tumor cell L929 (neutral red assay)
Method: [Procedure] The cytotoxicity action on tumor cell was measured by neutral red assay (the method described in the Journal of Tissue Culture Methodology vol.9, p.7 (1984) and Toxicology Letters, vol.24, p.119 (1985)). Concretely, L929 cells (5×10^4 cells/ml, 10% FCS/RPMI) were added to the wells of a 96 well ELISA plate at a rate of 100 μL each and cultured for a night, and the testing compounds of respective measurement concentrations were dissolved in DMSO solution and added to the above cells. The culture was continued for 3 days, and 2.0 μL of Neutral Red was added to attain the final concentration of 0.01%. The mixture was incubated for 1 hour at 37° C., the supernatant of the cell culture product was removed and the residue was washed twice with 200 μL of PBS to remove excess Neutral Red. Thereafter, the dye taken into the cell was extracted by adding 100 μL of 50% ethanol-1% acetic acid aqueous solution and the amount of the dye was determined by measuring the absorbance at 490 nm. The cytotoxicity was determined at each concentration of the test compound taking the cytotoxicity free from the drug as 100%. […] Two sets of measurement were performed for each test under the same condition and the average value was used as the test result.

[1] = test system: IgE antibody production from human lymphocyte; test: Human in vitro IgE antibody production suppressing activity (lymphocyte culture with IL-4 + IL-10 + anti-CD40 antibody, sandwich ELISA); conditions: for IC50: IgE antibody production; for inhibition at 1 µM: test drug concentration 1 μM, IL-4 + IL-10 + anti-CD40 antibody, read-out: IgE production suppressing ratio (%)
Method: (§1) The concentrations of IgE and IgG antibodies were measured by the following method according to the method described in the Journal of Immunology vol.146, pp.1836-1842, 1991 and the Journal of Immunology vol. 147, pp.8-13, 1991.
(§2) Concretely, lymphocyte was separated from the peripheral venous blood of healthy person by density gradient centrifugation. The obtained lymphocyte was washed, suspended in a culture liquid (RPMI-1640 (product of Gibco Co.)+10% heat-inactivated FCS (product of Whittaker Co.)+100 μg/ml streptomycin+100 U/ml penicillin G+2 mM L-glutamine) and cultured for a week in the presence of interleukin 4 (IL-4, product of GENZYME Co.) (0.1 μg/ml), anti-CD40 antibody (antiCD40Aab, product of BIOSOURCE Co.), clone B-B20) (2 μg/ml) and interleukin 10 (IL-10, product of GENZYME Co.) (0.2 μg/ml) in the presence or absence of the compounds of the present invention described in the Tables 10 to 15 at various concentrations as test drugs.
(§3) The culture liquid was added to the culture system, the culture was continued for additional one week, and the concentrations of IgE and IgG antibodies in the supernatant were measured by sandwich ELISA method.
(§4) The measurement by ELISA method was carried out according to the known ELISA method by using rabbit anti-human IgE(ε) antibody (product of ICN Co.) as the primary antibody and biotin.anti-human IgE monoclonal antibody (G7-26, product of PharMingen Co.) as the secondary antibody for the measurement of IgE antibody concentration and anti-human IgG monoclonal antibody (G18-145, product of PharMingen Co.) as the primary antibody and biotin-donkey anti-human IgG antibody (H+L) (product of Jackson Co.) as the secondary antibody for the measurement of IgG antibody concentration, and using avidin-biotin-hourse radish peroxidase (ABC kit, product of Vector Lab.) as the enzyme and TMB (3,3′,5,5′-tetramethylbenzidine) microwell peroxidase substrate system (product of Kirkegaard & Perry Laboratories Inc.) as the substrate.
(§5) The value of IC50 and the suppressing ratio (%) at the test drug concentration of 1 μM were calculated based on the concentration attained in the absence of the compound of the present invention (reference: Ueshimna, et al. American Academy of Allergy & Immunology, 1995 Annual Meeting, Program No.818).

[2] = test system: IgG antibody production from human lymphocyte; test: Human in vitro IgG antibody production (same lymphocyte culture, sandwich ELISA); conditions: for inhibition at 1 µM: Homo sapiens, Lymphocyte, test drug concentration 1 μM, IL-4 + IL-10 + anti-CD40 antibody, read-out: IgG production suppressing ratio (%); for IC50: IgG antibody production
Method: as §1, §2, §3, §4, §5

[3] = L929, 72 h, read-out: LD50 (μM)
[4] = 72 h, cytotoxic activity against L929, neutral red assay, 3 days culture, read-out: LD50 (the source's name)

| Structure (SMILES) | CC50 (L929 cells; [3]) [µM] | IC50 [1] [µM] | inhibition at 1 µM [1] [%] | inhibition at 1 µM [2] [%] | IC50 [2] [µM] | CC50 (L929 cells; [4]) [µM] |
| --- | --- | --- | --- | --- | --- | --- |
| O=C(Cc1ccc(Oc2ccc(OC3CCC(NS(=O)(=O)c4ccccc4)CC3)cc2)cc1)Nc1ccccc1C(=O)O (centres unmarked) [compound 121] | 1.8 | 0.027 | 100 | 77.5 | 0.543 | – |
| COC(=O)N1CCC(Oc2ccc(Oc3ccc(CC(=O)Nc4ccccc4C(=O)O)cc3)cc2)CC1 [compound 79] | 0.98 | 0.04 | 100 | 92.4 | 0.489 | – |
| O=C(Cc1ccc(Oc2ccc(OC3CCC(NC(=O)c4ccc(Cl)c(Cl)c4)CC3)cc2)cc1)Nc1ccccc1C(=O)O (centres unmarked) [compound 100] | – | 0.028 | 100 | 100 | 0.244 | 0.95 |
| O=C(Cc1ccc(Oc2ccc3cc(O[C@H]4CC[C@@H](NC(=O)c5cc(Cl)cnc5Cl)CC4)ccc3c2)cc1)Nc1ccccc1C(=O)O [compound 351] | – | < 0.01 | 100 | 71.7 | 0.662 | 0.31 |
